Seven compounds from ChEMBL document CHEMBL1781940, “Cytotoxic and PPARs transcriptional activities of sterols from the Vietnamese soft coral Lobophytum laevigatum” (Bioorg Med Chem Lett, 2011) can be followed below.

One may read the IC50 as the concentration that gives 50% inhibition. Low values mean greater potency, high ones weaker potency.

Molecules are shown by their SMILES. Calls of active or inactive are those of the source. The rule behind the calls is not given here.

Experiment [1] deals with A549. The experiment is described as follows: Cytotoxicity against human A549 cells after 24 hrs by MTT assay. As to conditions: for IC50: A549, 24 h. Type of experiment: functional, cell-based. Background: Tetrazolium assays rely on reduction of a dye to a coloured formazan, in cell work by metabolically active cells.
The test system of experiment [2] is HCT-116. The experiment is described as follows: Cytotoxicity against human HCT116 cells after 24 hrs by MTT assay. Type of experiment: functional, cell-based. As to conditions: for IC50: HCT-116, 24 h.
For experiment [3], the system named is HL-60. The experiment is described as follows: Cytotoxicity against human HL60 cells after 24 hrs by MTT assay. Type of experiment: functional, cell-based. Particulars: for IC50: HL-60, 24 h.
For experiment [4], the system named is A549. The experiment is described as follows: Induction of apoptosis in human A549 cells assessed as chromatin condensation apoptotic bodies at 4.5 uM after 24 hrs using Hoechst 33342 staining and fluorescent microscopy. Type of experiment: functional, cell-based.
Experiment [5] concerns HCT-116. The experiment is described as follows: Induction of apoptosis in human HCT116 cells assessed as chromatin condensation apoptotic bodies at 3.2 uM after 24 hrs using Hoechst 33342 staining and fluorescent microscopy. Type of experiment: functional, cell-based.
The test system of experiment [6] is HL-60. The experiment is described as follows: Induction of apoptosis in human HL60 cells assessed as chromatin condensation apoptotic bodies at 5.6 uM after 24 hrs using Hoechst 33342 staining and fluorescent microscopy. Type of experiment: functional, cell-based.
Experiment [7] deals with HepG2. The experiment is described as follows: Transactivation of PPAR transcriptional activity expressed in human HepG2 cells co-expressing PPRE-Luc after 24 hrs by luciferase reporter gene assay relative to negative control. Type of experiment: cell-based. On the technique in general: Reporter assays use an easily measured gene product as a stand-in for the process of interest.

Experiment [8] deals with HepG2. The experiment is described as follows: Transactivation of PPAR transcriptional activity expressed in human HepG2 cells co-expressing PPRE-Luc at 1 uM after 24 hrs by luciferase reporter gene assay relative to negative control. Type of experiment: cell-based.
Experiment [9] has as its system HepG2. The experiment is described as follows: Transactivation of PPAR transcriptional activity expressed in human HepG2 cells co-expressing PPRE-Luc at 10 uM after 24 hrs by luciferase reporter gene assay relative to negative control. Type of experiment: cell-based.

In the case of `CC(C)[C@H](C)[C@H](C)[C@@H](O)[C@]1(C)O[C@]12CC[C@H]1[C@@H]3CC[C@H]4[C@H](C)[C@@H](O)CC[C@]4(C)[C@H]3CC[C@@]12C` [LOBOPHYTOSTEROL], the IC50 was 4.5 µM in the experiment with A549 [1], 3.2 µM in the experiment on HCT-116 [2] and 5.6 µM with HL-60 [3]. The outcome with A549 [4], with HCT-116 [5] and in the experiment with HL-60 [6] was Active.
As for `C[C@H]1C[C@]2(O[C@H]3C[C@H]4[C@@H]5CC=C6C[C@@H](O)CC[C@]6(C)[C@H]5CC[C@]4(C)[C@H]3[C@@]2(C)O)OC1(C)C`, the Activity entry with HepG2 [7] was “Dose-dependent effect”. Further, the fold change (FC) with HepG2 [8] is 1.4; in the experiment on HepG2 [9], 2. The IC50 in the experiment on A549 [1] was over 20 µM; with HCT-116 [2] it was 6.9 µM; in the experiment with HL-60 [3], over 20 µM.
In the case of `O=C1c2c(O)ccc(O)c2C(=O)c2c(NCCNCCO)ccc(NCCNCCO)c21` [MITOXANTRONE], it took 8.2 µM to reach half-maximal inhibition with HL-60 [3] (IC50).
Turning to `C[C@H](CC[C@H](C)C(C)(C)O)[C@H]1CC[C@H]2[C@@H]3CC=C4C[C@@H](O)CC[C@]4(C)[C@H]3CC[C@]12C`, the half-inhibitory concentration (IC50) was over 20 µM in the experiment on A549 [1], 18.1 µM in the experiment on HCT-116 [2] and over 20 µM with HL-60 [3].
Take `CC(C)[C@@H](C)CC[C@@H](C)[C@H]1CC[C@H]2[C@@H]3[C@H](O)C=C4C[C@@H](O)CC[C@]4(C)[C@H]3CC[C@]12C`: in the experiment on HepG2 [7], the Activity entry was “Dose-dependent effect”. The results for the fold change (FC) in the experiment on HepG2 [8] and in the experiment on HepG2 [9] were 1.2 and 2.5, respectively. For the same compound, the outcome in the experiment with A549 [1], with HCT-116 [2] and with HL-60 [3] was inactive.
Regarding `CC(=O)[C@H]1CC[C@H]2[C@@H]3CC=C4C[C@@H](O)CC[C@]4(C)[C@H]3CC[C@]12C`, the Activity entry in the experiment on HepG2 [7] is “Dose-dependent effect”. The fold change (FC) in the experiment on HepG2 [8] came out at 1.6; in the experiment with HepG2 [9], 2.1. The outcome with A549 [1], in the experiment with HCT-116 [2] and with HL-60 [3] was inactive.
Turning to `CC(C)CCC[C@@H](C)[C@H]1CC[C@H]2[C@@H]3CC=C4C[C@@H](O)CC[C@]4(C)[C@H]3CC[C@]12C`, the result in the experiment on A549 [1], in the experiment with HCT-116 [2] and in the experiment on HL-60 [3] was inactive.
